In the assay the target is T1, human G288S SLACK (Homo sapiens, UniProt Q5JUK3, G269S).
T1 construct: host or cells: CHO-K1
T1 sequence (Q5JUK3 1-1235 isoform Q5JUK3-3 G288S): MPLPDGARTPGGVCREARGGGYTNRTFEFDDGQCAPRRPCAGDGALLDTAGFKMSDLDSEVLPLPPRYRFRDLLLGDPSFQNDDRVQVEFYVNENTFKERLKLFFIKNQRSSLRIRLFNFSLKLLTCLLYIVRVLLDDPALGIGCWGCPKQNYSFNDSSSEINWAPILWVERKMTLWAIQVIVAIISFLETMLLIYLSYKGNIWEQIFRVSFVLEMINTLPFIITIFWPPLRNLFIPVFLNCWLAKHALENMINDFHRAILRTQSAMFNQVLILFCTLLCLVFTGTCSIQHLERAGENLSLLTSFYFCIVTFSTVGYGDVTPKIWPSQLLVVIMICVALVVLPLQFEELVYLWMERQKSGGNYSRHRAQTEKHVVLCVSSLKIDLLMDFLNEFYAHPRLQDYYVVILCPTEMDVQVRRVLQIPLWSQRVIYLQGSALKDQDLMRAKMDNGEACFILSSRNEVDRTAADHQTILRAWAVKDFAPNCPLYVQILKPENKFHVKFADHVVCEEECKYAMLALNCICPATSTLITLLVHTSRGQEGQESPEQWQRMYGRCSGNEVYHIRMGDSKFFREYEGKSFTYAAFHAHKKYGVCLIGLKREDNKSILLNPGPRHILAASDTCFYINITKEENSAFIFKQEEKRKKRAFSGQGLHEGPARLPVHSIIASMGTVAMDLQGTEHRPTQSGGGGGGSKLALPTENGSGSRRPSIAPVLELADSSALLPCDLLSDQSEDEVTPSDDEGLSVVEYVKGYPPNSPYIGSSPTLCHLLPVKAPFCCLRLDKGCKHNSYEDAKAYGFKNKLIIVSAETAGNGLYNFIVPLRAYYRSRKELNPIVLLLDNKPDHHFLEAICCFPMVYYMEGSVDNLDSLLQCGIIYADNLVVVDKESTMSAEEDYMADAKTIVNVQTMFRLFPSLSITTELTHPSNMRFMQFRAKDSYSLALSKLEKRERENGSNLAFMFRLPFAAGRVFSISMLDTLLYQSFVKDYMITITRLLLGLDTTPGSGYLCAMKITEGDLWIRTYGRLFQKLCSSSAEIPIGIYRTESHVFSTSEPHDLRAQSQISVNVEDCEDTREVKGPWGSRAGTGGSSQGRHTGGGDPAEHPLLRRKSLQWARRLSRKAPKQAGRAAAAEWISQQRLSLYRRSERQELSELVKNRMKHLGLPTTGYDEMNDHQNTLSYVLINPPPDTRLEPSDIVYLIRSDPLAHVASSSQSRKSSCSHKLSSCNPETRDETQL
Nature of the assay: Whole-cell APC in CHO cells stably expressing human G288S SLACK. The assay is classed as cell-based. Conditions: for IC50: APC, CHO cells; for Imax: maximum inhibition at 30 µM standardized to VU0606170 (100%). From the text:
Development of a useful SLACK inhibitor in vivo tool will require potent activity at the corresponding mouse ortholog as studies in appropriate mouse models will be critical. Thus, we evaluated analogs 32 and 48 in our APC assay using CHO cells stably expressing mouse WT SLACK (Table 6). […] We were also eager to evaluate the same compounds with regard to their ability to inhibit clinically relevant GOF SLACK mutants. Both the C-terminus A934T mutant and transmembrane G288S mutant have been associated with clinical cases of EIMFS [3, 7].
Stably transfected monoclonal HEK293 cell lines expressing Slick, Maxi-K α1/β3, Maxi-K α1/β4, CaV3.2, GIRK 1/2, KV2.1, KV7.2, NaV1.7, and TASK-1 were generated as previously described. Stably transfected monoclonal HEK293 cell lines expressing hERG were generated as previously described. CHO-K1 cells expressing human Slack and disease-associated human Slack mutations, G288S and A934T, were generated by transfecting a PiggyBac TRE mammalian expression vector (VectorBuilder, Chicago, IL, USA) containing KCNT1. FuGENE 6 (Promega, Madison, WI, USA) transfection reagent and protocol, together with Opti-MEM (Thermo Fisher Scientific, Walkham, MA, USA), were utilized.
Automated patch-clamp recording was performed with a SyncroPatch 768 PE system (Nanion, Munich, Germany) as previously described. Whole-cell recordings were performed at room temperature. Cells were harvested by first washing with PBS without Mg^2+ or Ca^2+ (Gibco, Billings, MT, USA) to remove cell culture media, followed by dissociation with TryPLE (Gibco, Billings, MT, USA). Cells were then resuspended and diluted to 100,000 cells/mL in external solution. External solution contained 105 mM NaCl, 4 mM KCl, 1 mM MgCl2, 5 mM CaCl2, 10 mM HEPES, and 40 mM N-Methyl-D-glucamine chloride, titrated to pH of 7.4 and osmolarity of 300 mOsm/kg; internal solution contained 70 mM NaCl, 70 mM KF, 10 mM KCl, 5 mM EGTA, and 5 mM HEPES, titrated to a pH of 7.2 and osmolarity of 295 mOsm/kg.
The APC protocol was set as follows: Cells were held at a […] of −80 mV for 100 ms, then a ramp protocol was performed from −100 mV to 80 mV at 0.4 mV/ms, followed by holding the cell at −80 mV for another 100 ms, then steps were performed at −20 mV, 0 mV, +20 mV, +40 mV, and +60 mV for 100 ms of each step. Whole-cell currents were measured at 0 mV and normalized to current after external buffer addition. […] To obtain the concentration-response relationship graphs and IC50 values, we take the median value of the last 7 current amplitude values obtained for each set of data points collected for a given concentration at a particular step.

Regarding `COc1cccc(Cn2c(=O)c3c(nc(N(C)Cc4ccccc4)n3C)n(C)c2=O)c1` [Analog 32], the 50% inhibitory concentration (IC50) was 650 nM and the Imax is recorded as 100%.

`CN(Cc1cccc(F)c1)c1nc2c(c(=O)n(Cc3ccccc3)c(=O)n2C)n1C` [Analog 48] registered a concentration for half-maximal inhibition (IC50) of 750 nM and an Imax of 100%.

Turning to `CCCCN(Cc1cccc(F)c1)c1nc2c(c(=O)n(Cc3cccc(OC)c3)c(=O)n2C)n1C` [Analog 78], the IC50 came out at 880 nM.

The molecule `COc1cccc(Cn2c(=O)c3c(nc(N(Cc4cccc(F)c4)CC4CC4)n3C)n(C)c2=O)c1` [Analog 79] showed an IC50 of 1000 nM.

Molecule `CCCCN(Cc1ccc(F)cc1)c1nc2c(c(=O)n(Cc3cccc(OC)c3)c(=O)n2C)n1C` [Analog 80] showed an IC50 of 710 nM.

Regarding `COc1cccc(Cn2c(=O)c3c(nc(N(Cc4ccc(F)cc4)CC4CC4)n3C)n(C)c2=O)c1` [Analog 81], half-maximal inhibition (IC50) required 790 nM.

By IC50 is commonly meant the concentration that gives 50% inhibition. Lower therefore signals greater potency in that assay.

The values are drawn from PMC11173529, “Structure–Activity Relationship Studies in a Series of Xanthine Inhibitors of SLACK Potassium Channels” (Molecules, 2024).
